Several values for one entry are separate records, joined by “and”; a condition that tells them apart may be missing. Equal entries are not always repeated.
Key:
[1] = tested on: λ-carrageenan induced neutrophil mediated inflammation of the footpad; assay: λ-carrageenan-induced footpad inflammation (footpad swelling); assay type: in vivo, BALB/c mice; settings: for Footpad Thickness (+/− SE): oxidised peptide
Method: Experimental groups of 8-10 female BALB/c mice, 8-10 weeks of age, were housed in temperature controlled rooms and given food and water ad libitum. Observations and measurements were made by an investigator blinded to the experimental group. λ-Carrageenan injection. After measuring the baseline thickness of the hind footpads with a spring-loaded engineer's micrometer, mice were injected subcutaneously in both hind paws with 340 μg of λ-carrageenan in 40 μl. 6 h., 24 h., and 48 h. after the injection of λ-carrageenan, footpads were re-measured and swelling calculated by subtracting the baseline from the experimental measurements. For each mouse, increases in right and left footpad thickness were averaged. Thymosin peptides were injected as previously described [reference 8]: (i) intraperitoneally with 100 μl of 3.50×10^−5 M peptide solution, 30 minutes before footpad injection; (ii) intradermally into the footpad with 40 μl of 8.75×10^−5 M peptide solution and λ-carrageenan at time 0, and (iii) intraperitoneally with 100 μl of 3.50×10^−5 M peptide solution, 6 h. after footpad injection. For each group, the mean increase in footpad thickness was calculated, and compared to other groups using a one-tailed Student's t-test. The experiment was repeated four times. Statistics. Groups were compared for differences in the meaning using a one-tailed Student's t test; p<0.05 was considered statistically significant.

[2] = tested on: human umbilical vein endothelial cells (HUVEC); assay: Endothelial scratch wound assay; assay type: cell-based; settings: for % Closure (+/− SE %): 2.0×10^-7 M peptide, ECGS 200 μg
Text: The endothelial “scratch wound assay” was utilised to test the effects of mUTβ4 and mLTβ4 on the migration of endothelial cells in vitro, as described in […] et al. (1997) Thymosin beta 4 accelerates wound healing. J Invest Dermatol. 1999 September; 113(3):364-8 and Young et al., (1999) Thymosin b 4 sulfoxide is an anti-inflammatory agent generated by monocytes in the presence of glucocorticoids. Nature Medicine. 5:1424-1427. HUVECs were obtained from the Endothelial Cell Culture Core Laboratory of the Yale Skin Diseases Research Core Center (Dr. M. Kluger). Passage 3 was used, and plated at a density of 9.5×10^4 cells per well. Cells were grown to 90% confluence in 24 well plates (Corning/Costar), in M-199 media supplemented with 20% FBS, antibiotics, and endothelial cell growth supplement (ECGS). A scratch was made along the diameter of each well with a sterile blue 1 ml pipette tip (Falcon). Cells were then rinsed in MEM buffer. Thymosin peptide was added to the cells in media lacking ECGS but containing 10 mM thymidine to inhibit cell proliferation. In the experimental groups, HUVECs were given 2.0×10^-7 M peptide solution of mUTb4, or in LTb4. Control groups consisted of saline (negative control) and 200 mg of ECGS (positive control). The plates were incubated at 37° C., fixed in 2% paraformaldehyde, and stained with crystal violet at time points 9 h. and 24 h. The scratch width was measured using a microscope with a 4× objective lens connected to a digital camera and then analyzed using Scion Image 1.62 software. The percent closure of the 9 h. and 24 h. measurements was calculated by dividing by the original wound width at time zero in square pixels. For each group, the mean percent closure was calculated, based on 4 images per well, 4 wells per group.

[3] = tested on: DNFB-induced allergic contact dermatitis of ear skin; assay: DNFB allergic contact dermatitis (ACD) ear swelling assay; assay type: in vivo, FVB mice; settings: for ear thickness: unit not given
Method: Experimental groups of 8-10 female FVB mice, 8-10 weeks of age, were housed in temperature controlled rooms and given food and water ad libitum. Observations and measurements were made by an investigator blinded to the experimental group. Mice were sensitized on day 0 by epicutaneous application to razor-shaved abdominal skin of 25 μl of 0.5% DNFB in a mixture of acetone:olive oil (4:1). Before the challenge with DNFB, mice were injected (i) intraperitoneally with 100 μl of 3.50×10^−5 M thymosin peptide solution (30 minutes before DNFB) and (ii) intradermally with 40 μl of 8.75×10^−5 M peptide solution in both ears (1 min prior to DNFB challenge). On day 5, after measuring baseline ear thickness with an engineer's micrometer, mice were challenged by applying 10 μl of 0.2% DNFB in acetone:olive oil to each side of each ear. Ears were re-measured 6 h., 24 h., and 48 h. after challenge, and data expressed as the response above baseline (i.e., ear thickness 24 h. after challenge minus ear thickness immediately prior to challenge)±1 standard error of the mean (S.E.). For each mouse, increases in right and left ear thickness were averaged. The experiment was repeated twice. Statistics. Groups were compared for differences in the meaning using a one-tailed Student's t test; p<0.05 was considered statistically significant.

[4] = tested on: TPA-induced irritant contact dermatitis of ear skin; assay: TPA irritant contact dermatitis (ICD) ear swelling assay; assay type: in vivo, BALB/c and FVB mice; settings: for ear swelling: 6 h, unit not given; for TPA Ear Thickness (+/− SE): increase over baseline
Method: Experimental groups of 8-10 female BALB/c and FVB mice, 8-10 weeks of age, were housed in temperature controlled rooms and given food and water ad libitum. Observations and measurements were made by an investigator blinded to the experimental group.
After measuring the baseline ear thickness, naïve mice were injected intraperitoneally (IP) with either 100 μl of PBS, or 100 μl of 3.50×10^−5 M peptide solution (oxidized mTβ4 (“mTβ4-so”), or oxidized mLTβ4 (“mLTβ4-so”) [n=10 per group]). 30 minutes later, mice were injected intradermally with 40 μl of either PBS or 8.75×10^−5 M solution of the appropriate peptide in both ears. One minute later, 40 nmol TPA (in 10 μl acetone) was applied to the anterior side of each ear. 6 h. and 24 h. after the topical application of TPA, the ears were re-measured, and the increases in ear thickness between baseline and 6 h. and between baseline and 24 h. calculated. For each mouse, increases in right and left ear thickness were averaged.
Statistics. Groups were compared for differences in the meaning using a one-tailed Student's t test; p<0.05 was considered statistically significant.

N-MSDKPDMAEIEKFDKSKLKKTETQEINPL-PSIETIEQEKQAGES-C (SEQ ID NO:2) [mUTβ4]
suppression of footpad inflammation relative to PBS ([1]; 6 h): 29% | suppression of footpad inflammation relative to PBS ([1]; 24 h): 45% | suppression of footpad inflammation relative to PBS ([1]; 48 h): 38% | Footpad Thickness (+/− SE) ([1]; Methionated Thymosin Experiment (B), forty-eight hours after λ-carrageenan, listed as mTβ4-so): 0.51 ± 0.02 mm and 0.55 ± 0.03 mm | Footpad Thickness (+/− SE) ([1]; Methionated Thymosin Experiment (B), six hours after λ-carrageenan, listed as mTβ4-so): 0.36 ± 0.06 mm and 0.51 ± 0.05 mm | Footpad Thickness (+/− SE) ([1]; Methionated Thymosin Experiment (B), twenty-four hours after λ-carrageenan, listed as mTβ4-so): 0.38 ± 0.01 mm and 0.28 ± 0.04 mm | % Closure (+/− SE %) ([2]; nine hours, listed as mTβ4): 24% and 24.0 ± 1.1% | % Closure (+/− SE %) ([2]; twenty-four hours, listed as mTβ4): 21% and 21.0 ± 1.5% | % Closure (+/− SE %) ([2]; twenty-four hours, listed as mTβ4-so): 21.0±1.5% | suppression of ACD ear swelling response relative to PBS ([3]; 72 h): 29% | DNFB Ear Thickness (+/− SE) ([3]; Methionated Thymosin Experiment, forty-eight hours after challenge, listed as mTβ4-so): 18.39 ± 1.67 mm and 15.11 ± 0.37 mm | DNFB Ear Thickness (+/− SE) ([3]; Methionated Thymosin Experiment, six hours after challenge, listed as mTβ4-so): 5.18 ± 0.78 mm and 4.39 ± 1.08 mm | DNFB Ear Thickness (+/− SE) ([3]; Methionated Thymosin Experiment, twenty-four hours after challenge, listed as mTβ4-so): 20.25 ± 1.54 mm and 16.75 ± 0.48 mm | ear swelling [4]: 24.10±1.83 | suppression of inflammation relative to PBS-treated controls ([4]; 6 h post-application of TPA): 21% | suppression of inflammation relative to PBS-treated controls ([4]; 24 h post-application of TPA): 13% | TPA Ear Thickness (+/− SE) ([4]; six hours after TPA, listed as mTβ4): 24.10 ± 1.83 mm and 18.00 ± 1.58 mm | TPA Ear Thickness (+/− SE) ([4]; twenty-four hours after TPA, listed as mTβ4-so): 19.00 ± 1.83 mm and 16.75 ± 1.79 mm

N-MLLPATMSDKPDMAEIEIFDKSKILITE-TQEKNPLPSKETIEQEKQAGES-C (SEQ ID NO:9) (MLLPATMSDKPDMAEIEKFDKSKLKKTETQEKNPLPSKETIEQEKQAGES; listed as Homo sapiens) [mLTβ4, N-terminal methionated lymphoid thymosin-β4, chemically synthesised]
suppression of footpad inflammation relative to PBS ([1]; 6 h): 50% | footpad swelling compared with mice receiving PBS or mUTβ4 (FIG. 2B) ([1]; 6 h and 24 h): significantly reduced footpad swelling | suppression of footpad inflammation relative to PBS ([1]; 24 h): 59% | suppression of footpad inflammation relative to PBS ([1]; 48 h): 34% | % Closure (+/− SE %) ([2]; nine hours): 27.2 ± 1.6% | % Closure (+/− SE %) ([2]; nine hours, listed as mLβ): 27.2% | more closure than mTβ4-so ([2]; twenty four hours): 15.3% | % Closure (+/− SE %) ([2]; twenty-four hours): 37.3 ± 4.4% | % Closure (+/− SE %) ([2]; twenty-four hours, listed as mLβ): 37.3% | effect on migration of HUVEC to close an artificial wound (FIG. 5) ([2]; vs PBS at 9 h and 24 h, vs mUTβ4 at 24 h): significantly greater than PBS | suppression of ACD ear swelling response relative to PBS ([3]; 6 h): 37% | suppression of ACD ear swelling response relative to PBS ([3]; 24 h): 27% | ear swelling response relative to mice that received PBS or mUTβ4 (FIG. 4B) ([3]; 24 h and 72 h): significant reduction in ear swelling response | suppression of ACD ear swelling response relative to PBS ([3]; 72 h): 42% | ear swelling [4]: 18.00±1.58 | suppression of inflammation relative to PBS-treated controls ([4]; 6 h post-application of TPA): 41% | suppression of inflammation relative to PBS-treated controls ([4]; 24 h post-application of TPA): 24% | suppression of TPA-induced ear swelling (FIG. 3) ([4]; vs PBS at 6 h and 24 h, vs mUTβ4 at 6 h): significantly more than PBS

N-LLPATMSDKPDMAEIEKFDKSKLKKTE-TQEKNPLPSKETIEQEKQAGES-C (SEQ ID NO:8) (LLPATMSDKPDMAEIEKFDKSKLKKTETQEKNPLPSKETIEQEKQAGES; listed as Homo sapiens) [LTβ4, lymphoid thymosin-β4 polypeptide, un-methionated form, chemically synthesised]
suppression of footpad inflammation relative to PBS ([1]; 6 h): 21% | footpad swelling compared with mice receiving PBS or UTβ4 (FIG. 2A) ([1]; 24 h): significantly reduced footpad swelling | suppression of footpad inflammation relative to PBS ([1]; 24 h): 58% | footpad thickness ([1]; 24 h, unit not given): 0.22±0.03 | suppression of footpad inflammation relative to PBS ([1]; 48 h): 42% | Footpad Thickness (+/− SE) ([1]; Un-Methionated Thymosin Experiment (A), forty-eight hours after λ-carrageenan): 0.34 ± 0.04 mm | Footpad Thickness (+/− SE) ([1]; Un-Methionated Thymosin Experiment (A), six hours after λ-carrageenan, increase over baseline): 0.47 ± 0.04 mm | Footpad Thickness (+/− SE) ([1]; Un-Methionated Thymosin Experiment (A), twenty-four hours after λ-carrageenan): 0.22 ± 0.03 mm | suppression of ACD ear swelling response relative to PBS ([3]; 6 h): 17% | ear swelling response compared to mice receiving PBS or UTβ4 (FIG. 4A) ([3]; 6 h, 24 h and 72 h after challenge): significant reduction in ear swelling response | suppression of ACD ear swelling response relative to PBS ([3]; 24 h): 21% | suppression of ACD ear swelling response relative to PBS ([3]; 72 h): 24% | DNFB Ear Thickness (+/− SE) ([3]; Un-Methionated Thymosin Experiment, forty-eight hours after challenge): 15.45 ± 0.91 .01 mm | DNFB Ear Thickness (+/− SE) ([3]; Un-Methionated Thymosin Experiment, six hours after challenge): 7.83 ± 0.61 .01 mm | DNFB Ear Thickness (+/− SE) ([3]; Un-Methionated Thymosin Experiment, twenty-four hours after challenge): 18.98 ± 0.74 .01 mm | thinner ears than uTβ4-so treated mice ([3]; seventy-two hours): 22% | ear thickness ([3]; seventy-two hours): 15.45±0.91 | thinner ears than uTβ4-so treated mice ([3]; six hours): 21% | ear thickness ([3]; six hours): 7.83±0.61 | thinner ears than uTβ4-so treated mice ([3]; twenty-four hours): 16% | ear thickness ([3]; twenty-four hours): 18.98±0.74

— patent US20090317457A1, “ANTI-INFLAMMATORY AND WOUND HEALING EFFECTS OF LYMPHOID THYMOSIN B-4” (Yale University, priority 2002, published 2009)
